Laboratory results reported in ChEMBL document CHEMBL1201862, “PubChem BioAssay data set” (2004).
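Tested at 5 concentrations; 48 h exposure; 96-well plates; endpoints linearly interpolated, else capped at highest concentration. At the GI50, growth is halved.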 The source made the active and inactive calls. Rule as the data show it: active = GI50 up to about 1.1 µM and inactive = higher.

Key:
Assay in all cases: NCI-60 cell line screen, 48 h
MDA-N = system: MDA-N
HOP-62 = system: HOP-62
NCI-H23 = system: NCI-H23
PC-3 = system: PC-3
HCT-15 = system: HCT-15
HT-29 = system: HT-29
SF-539 = system: SF-539
SW-620 = system: SW-620
HL-60 = system: HL-60
KM12 = system: KM12
SK-MEL-2 = system: SK-MEL-2
SN12C = system: SN12C
Malme-3M = system: Malme-3M
COLO 205 = system: COLO 205
SR = system: SR
786-0 = system: 786-0
NCI-H522 = system: NCI-H522
SK-OV-3 = system: SK-OV-3
OVCAR-5 = system: OVCAR-5

Structure (SMILES) | GI50 (MDA-N) | GI50 (HOP-62) | GI50 (NCI-H23) | GI50 (PC-3) | GI50 (HCT-15) [µM] | GI50 (HT-29) | GI50 (SF-539) | GI50 (SW-620) | GI50 (HL-60) | GI50 (KM12) | GI50 (SK-MEL-2) | GI50 (SN12C) | GI50 (Malme-3M) | GI50 (COLO 205) | GI50 (SR) | GI50 (786-0) | GI50 (NCI-H522) | GI50 (SK-OV-3) | GI50 (OVCAR-5)
COc1cc(C2C3=C(COC3=O)Oc3cc4c(cc32)OCO4)cc(OC)c1OC(C)=O (stereo not given) | < 0.01 µM (active) | 0.0157 µM (active) | 0.0233 µM (active) | < 0.01 µM (active) | 0.0226 | 0.0262 µM (active) | < 0.01 µM (active) | 0.0202 µM (active) | < 0.0104 µM (active) | 0.0135 µM (active) | 37 µM (inactive) | 0.619 µM (active) | < 0.0215 µM (active) | 0.027 µM (active) | 0.0406 µM (active) | 0.0186 µM (active) | < 0.01 µM (active) | – | –
O=C(O)CSCCc1ccccc1 | > 100 µM (inactive) | > 100 µM (inactive) | > 100 µM (inactive) | > 100 µM (inactive) | > 100 | > 100 µM (inactive) | > 100 µM (inactive) | > 100 µM (inactive) | 0.156 µM (active) | > 100 µM (inactive) | > 100 µM (inactive) | > 100 µM (inactive) | > 100 µM (inactive) | > 100 µM (inactive) | > 100 µM (inactive) | > 100 µM (inactive) | > 100 µM (inactive) | > 100 µM (inactive) | > 100 µM (inactive)
O=C1C=C(OCCCl)C(=O)c2c(O)ccc(O)c21 | 0.17 µM (active) | 0.589 µM (active) | 0.242 µM (active) | 1.82 µM (inactive) | 0.209 | 0.378 µM (active) | 1.36 µM (inactive) | – | 1.11 µM (active) | 2.07 µM (inactive) | 0.478 µM (active) | 0.225 µM (active) | 0.175 µM (active) | 0.181 µM (active) | 0.861 µM (active) | 1.62 µM (inactive) | 2.32 µM (inactive) | 1.71 µM (inactive) | 1.59 µM (inactive)
CCN1C(=O)C(C)S/C1=N\NC(=O)CSc1nc2ccccc2c(=O)n1CC (stereo not given) | > 100 µM (inactive) | > 100 µM (inactive) | > 100 µM (inactive) | > 100 µM (inactive) | > 100 | – | > 100 µM (inactive) | > 100 µM (inactive) | > 100 µM (inactive) | > 100 µM (inactive) | > 100 µM (inactive) | > 100 µM (inactive) | > 100 µM (inactive) | > 100 µM (inactive) | > 100 µM (inactive) | > 100 µM (inactive) | > 100 µM (inactive) | > 100 µM (inactive) | > 100 µM (inactive)
O=C1/C(=C/c2ccccc2[N+](=O)[O-])N=C(c2ccccc2)N1C1Nc2cc3c(cc2S1)NC(N1C(=O)/C(=C/c2ccccc2[N+](=O)[O-])N=C1c1ccccc1)S3 (stereo not given) | 36.8 µM (inactive) | 89.5 µM (inactive) | 29 µM (inactive) | 32.9 µM (inactive) | 32.8 | 36.2 µM (inactive) | 44.8 µM (inactive) | 50.4 µM (inactive) | 24 µM (inactive) | 52.4 µM (inactive) | 36.8 µM (inactive) | – | – | – | 8.51 µM (inactive) | 22.3 µM (inactive) | 17.3 µM (inactive) | – | > 100 µM (inactive)
Oc1cc(Br)cc2cccnc12 | 8.28 µM (inactive) | 5.31 µM (inactive) | 2.58 µM (inactive) | 3.17 µM (inactive) | 0.697 | 8.22 µM (inactive) | 2.16 µM (inactive) | 2.56 µM (inactive) | 0.237 µM (active) | 4.7 µM (inactive) | 15.6 µM (inactive) | 2.1 µM (inactive) | 3.05 µM (inactive) | 11.6 µM (inactive) | 0.56 µM (active) | 9.51 µM (inactive) | 1.64 µM (inactive) | 27.6 µM (inactive) | 5.12 µM (inactive)
CC(C)(C)OC(=O)N/C=C1\C(=O)Oc2ccccc2C1=O | 34.5 µM (inactive) | 17.1 µM (inactive) | 42.4 µM (inactive) | 32.3 µM (inactive) | 11.3 | > 100 µM (inactive) | 14.7 µM (inactive) | 38.5 µM (inactive) | > 100 µM (inactive) | 37.9 µM (inactive) | 14.6 µM (inactive) | 24.5 µM (inactive) | 31.3 µM (inactive) | 51.1 µM (inactive) | > 100 µM (inactive) | 34.6 µM (inactive) | < 0.01 µM (active) | 0.0294 µM (active) | 46.8 µM (inactive)
Sc1ncc(-c2cncc(-c3cnc(S)nc3)n2)cn1 | > 100 µM (inactive) | – | > 100 µM (inactive) | > 100 µM (inactive) | > 100 | > 100 µM (inactive) | > 100 µM (inactive) | > 100 µM (inactive) | > 100 µM (inactive) | > 100 µM (inactive) | > 100 µM (inactive) | > 100 µM (inactive) | > 100 µM (inactive) | > 100 µM (inactive) | 85.1 µM (inactive) | > 100 µM (inactive) | > 100 µM (inactive) | > 100 µM (inactive) | > 100 µM (inactive)
CCOC(=O)C(=C(SC)SC)c1nn2c(=O)cc(C)nc2s1 | 16.4 µM (inactive) | > 100 µM (inactive) | 32.9 µM (inactive) | 23.3 µM (inactive) | 17.1 | 20.9 µM (inactive) | 18.2 µM (inactive) | 21 µM (inactive) | 17.4 µM (inactive) | 33 µM (inactive) | 20.1 µM (inactive) | 33.1 µM (inactive) | 15.9 µM (inactive) | 18.6 µM (inactive) | 24.4 µM (inactive) | 19.1 µM (inactive) | 23 µM (inactive) | 69.7 µM (inactive) | 28.4 µM (inactive)
O=c1c2ccccc2[nH]c2c(Cl)cc(Cl)c(NC3CCCCC3)c12 | 33.3 µM (inactive) | 20.7 µM (inactive) | 17 µM (inactive) | 22.8 µM (inactive) | 30.1 | 16.3 µM (inactive) | 23.2 µM (inactive) | 22.6 µM (inactive) | 18.2 µM (inactive) | 14.8 µM (inactive) | 16.8 µM (inactive) | 24.4 µM (inactive) | – | 31.8 µM (inactive) | 12 µM (inactive) | 31.3 µM (inactive) | 20.1 µM (inactive) | 32.2 µM (inactive) | 20.1 µM (inactive)
CCCCC1Nc2ccccc2-c2ccnc(Cl)c21 (stereo not given) | 15.6 µM (inactive) | 19.3 µM (inactive) | 16.5 µM (inactive) | 25.8 µM (inactive) | 16.9 | 10.8 µM (inactive) | 19.2 µM (inactive) | 21.2 µM (inactive) | 17.8 µM (inactive) | 20.7 µM (inactive) | 16.8 µM (inactive) | 20.8 µM (inactive) | 20.8 µM (inactive) | 15.7 µM (inactive) | 18.7 µM (inactive) | 19.5 µM (inactive) | 11.7 µM (inactive) | 20.3 µM (inactive) | –
C/C(=N\NC(=O)c1ccc(Cl)cc1)c1nc2cccnc2[nH]1 | 30.5 µM (inactive) | 32.7 µM (inactive) | 33.8 µM (inactive) | > 100 µM (inactive) | 11.7 | 45.9 µM (inactive) | 18.2 µM (inactive) | 28.9 µM (inactive) | 32.7 µM (inactive) | 24.8 µM (inactive) | 28.4 µM (inactive) | 27.6 µM (inactive) | 14.2 µM (inactive) | 30.5 µM (inactive) | 18 µM (inactive) | 16 µM (inactive) | 18.7 µM (inactive) | 20.4 µM (inactive) | > 100 µM (inactive)
Cc1c(N2C(=O)C(Cl)C2/C=C/c2ccccc2)c(=O)n(-c2ccccc2)n1C (stereo not given) | 14.4 µM (inactive) | 22.8 µM (inactive) | 7.59 µM (inactive) | 31.6 µM (inactive) | – | 24.4 µM (inactive) | 22.4 µM (inactive) | 24.2 µM (inactive) | 20.1 µM (inactive) | 12.7 µM (inactive) | 17.3 µM (inactive) | 20.4 µM (inactive) | 5.75 µM (inactive) | 14.1 µM (inactive) | 17.5 µM (inactive) | 24.9 µM (inactive) | 14.4 µM (inactive) | 32 µM (inactive) | 43.9 µM (inactive)
C=C1C(=O)O[C@@H]2/C=C(\C)CC/C=C(/COC(C)=O)C[C@@H](OC(C)=O)[C@@H]12 | 6 µM (inactive) | 22.9 µM (inactive) | 13.6 µM (inactive) | 16.1 µM (inactive) | 3.28 | 4.24 µM (inactive) | 16.2 µM (inactive) | 3.94 µM (inactive) | 2.03 µM (inactive) | 14.8 µM (inactive) | 16 µM (inactive) | 11.3 µM (inactive) | 1.46 µM (inactive) | 3.44 µM (inactive) | 2.16 µM (inactive) | 5.18 µM (inactive) | 1.16 µM (inactive) | 40.6 µM (inactive) | 17.4 µM (inactive)
COC1Cc2c(C)c(OC(C)=O)c3cccnc3c2O1 (stereo not given) | 20.8 µM (inactive) | 25.1 µM (inactive) | 20.6 µM (inactive) | 36.7 µM (inactive) | 10.4 | 43.8 µM (inactive) | 48.2 µM (inactive) | 13.5 µM (inactive) | 6.79 µM (inactive) | 36.6 µM (inactive) | 13.9 µM (inactive) | 18.5 µM (inactive) | 13.8 µM (inactive) | 91.8 µM (inactive) | 15.6 µM (inactive) | 18.2 µM (inactive) | 2.75 µM (inactive) | 26.9 µM (inactive) | 18.2 µM (inactive)
O=C1CCCC/C1=C\c1ccc([N+](=O)[O-])cc1 | 17.8 µM (inactive) | 11.5 µM (inactive) | 24 µM (inactive) | 2.03 µM (inactive) | – | 37.3 µM (inactive) | 20.4 µM (inactive) | 1.96 µM (inactive) | 42.5 µM (inactive) | 18.3 µM (inactive) | 21.5 µM (inactive) | 13.5 µM (inactive) | – | 18.4 µM (inactive) | 20.2 µM (inactive) | 14.9 µM (inactive) | 11 µM (inactive) | 17.2 µM (inactive) | 54.2 µM (inactive)
